Converted amounts (≈) assume the structure as drawn. “And” between values parts separate entries of the source, which are not always exact repeats. Equal entries are not always repeated. Where two headings read alike, the source gives them in different places.
Legend:
[1] = solubility in 0.9% saline solution
[2] = test system: murine and human tumor xenografts; assay: retention of 19F signal in murine and human tumor xenografts by MRS; assay type: in vivo, mouse; human
Procedure: In addition to the above experiment, more extensive in vivo experiments have been performed. In order to assess the oxygenation status of various murine and human tumor xenografts, the retention of ^19 F signal as measured by MRS was evaluated following SR 4554 administration. The data shown in FIG. 8 represent the mean ±SD of the ratios of ^19 F retention (μmol/g) at 6 hrs relative to 45 mins. RIF1 (fibrosarcoma), EMT6 ([…]) and KHT (adenocarcinoma) are murine tumors whereas HT29 (colon carcinoma), BB (colon carcinoma), WIL (non-small cell lung carcinoma) and HN5 (squamous cell carcinoma of the head and neck) are human tumor xenografts. Importantly, the data illustrates the varying degree of retention of SR 4554 by the different tumors.

[3] = toxicity of SR 4554 in female Balb/c mice; assay type: in vivo, mouse
Procedure: Toxicity studies of SR 4554 were done in female Balb/c mice. Mice were injected with SR 4554 i.v with 191 mg/kg ([…]) body weight or i.p. with 383 mg/kg ([…]) body weight. Control mice were injected with an equivalent volume of solvent (saline).

[4] = test system: cytochrome P450 reductase; assay: reduction by purified human cytochrome P450 reductase under hypoxia; assay type: in vitro ADME; details: 100% nitrogen
Text: (§1) SR 4554 was reduced by mouse liver microsomes as well as purified rat and human cytochrome P450 reductase under hypoxia (100% nitrogen).

[5] = pharmacokinetics of SR 4554 in EMT-6 tumor-bearing mice (HPLC); assay type: in vivo, mouse
Procedure: Silver nitrate solution (25 μl; 30% w/v) was added to 250 μl of tissue samples and standards and to 20 μl of internal standard solution (12.5 μg/ml in 0.1M Tris buffer, pH 7.4). Samples were then vortexed and centrifuged (2000×g) for 5 min. The extracted samples 50 μl) were then injected into the HPLC.
The chromatographic system consisted of a WISP Model 712 autosampler (Waters Chromatography Ltd.), Model 660 gradient controller with a quaternary HPLC pump, a Model 991 photodiode array detector and a NEC Powermate SX/16 personal computer running Waters 991 photodiode array software. A reversed phase chromatographic separation was performed on a 10 μm μ Bondapak C18 (3.9×300 mm) analytical column (Millipore) at ambient temperature. Pellicular ODS (Whatman) packed in a 2×6.5 mm stainless steel column (Upchurch Scientific, Inc.) was used as a pre-column. The mobile phase was methanol/H2 O) (15:85). All solvents were filtered through a 0.45 μm Teflon PTFE/polypropylene filter membrane, de-gassed with helium and delivered isocratically at a flow rate of 2 ml/min. The column effluent was monitored by UV-photodiode array detection at 324 nm (UV range=200 to 500 nm). The peak area ratio of analyte to internal standard was used for conversion of the detector response to concentration estimates via the construction of a calibration curve.
EMT-6 tumor-bearing mice were used in this study. Mice were given a single intraperitoneal or intravenous injection (180 mg/kg body weight) or a single oral dose (p.o. 90 mg/kg) by lavage of SR 4554. Three mice were sacrificed per time point and blood obtained by cardiac puncture. The blood obtained was centrifuged to give plasma. Tumors, livers and brain were also obtained at various time points. Samples were extracted with silver nitrate and analyzed by high performance liquid chromatography (HPLC) using the procedures described in Example 4.

[6] = log P (lipophilicity); assay type: physicochemical
[7] = test system: EMT-6 tumors; assay: retention in EMT-6 tumor-bearing Balb/c mice by 19F magnetic resonance spectroscopy; assay type: in vivo, mouse
Procedure: SR 4554 was administered as a single intraperitoneal injection of 180 mg/kg to RIF-1 tumor-bearing female C3 H/He mice and EMT-6 tumor-bearing female Balb/c mice. In some experiments, hydralazine ([…] i.v.) was administered 1 h prior to the administration of SR 4554. Magnetic resonance spectroscopy (MRS) was conducted on a 4.7 Tesla (SISCO) nuclear magnetic resonance (NMR) spectrometer using a double-tuned (^19 F/^2 H) circuit at 45 min and 6 hr post injection of SR 4554. Drug concentrations were obtained using a modification of the method of Thulborn et al. (1983) J. Magn. Reson. 55:357-371. Specifically, the ^19 F signal intensity was related to the natural abundance ^2 H signal from tissue water. Calibrations involved the use of a reference bulb containing 5-fluorotryptophan (5-FTP) and acetic acid-d (AcOH-d). Tumors were excised immediately after MRS examination and original drug levels determined by high performance liquid chromatography (HPLC), as described in Example 6.
RIF-1 and EMT-6 tumors have a low and a high radiobiological hypoxic fraction, respectively. Moulder et al. (1984), supra.

[8] = test system: cytochrome P450 reductase; assay: reduction by purified rat cytochrome P450 reductase under hypoxia; assay type: in vitro ADME; details: 100% nitrogen
Text: as §1

[9] = test system: C3H mouse mammary tumor; assay: influence of carbogen breathing on SR 4554 retention within the C3H mouse mammary tumor; assay type: in vivo
Text: Table 4 presents the influence of high levels of oxygen (carbogen breathing) on SR 4554 retention within the C3H mouse mammary tumor.

[10] = urinary excretion of SR 4554 in non-tumor-bearing female Balb/c mice; assay type: in vivo, mouse; details: urine
[11] = test system: C3H-mammary tumor; assay: SR 4554 retention and oxygen electrode measurement in C3H-mammary tumor; assay type: in vivo, mouse
Procedure: Tumor oxygenation measurements were performed 3 hours after SR 4554 administration using a polarographic needle oxygen electrode.

[12] = per amount injected 3.34-3.55 mg

Structure (SMILES): O=C(Cn1ccnc1[N+](=O)[O-])NCC(O)C(F)(F)F (racemic) [SR 4554]
- solubility [1]: 23 mM (≈ 6490 µg/mL)
- retention in human tumor xenografts vs murine tumors (6 hrs relative to 45 mins) ([2]; HT29, BB, WIL, HN5 vs RIF1, EMT6, KHT): Apart from the WIL tumor, the retention of the drug in human tumor xenografts were lower than for the murine tumors
- trend of retention with hypoxic fraction ([2]; murine and human tumors): tumors which are known to have a greater hypoxic fraction retained more SR 4554
- behavioral changes or deaths ([3]; i.v. 191 mg/kg or i.p. 383 mg/kg): no behavioral changes or deaths were observed
- bodyweight changes between treated and control mice ([3]; mouse, in vivo): No differences were observed
- reduced under hypoxia [4]: reduced
- brain/plasma ratio over time ([5]; i.p.): generally remained low throughout the observation period
- liver/plasma ratio over time ([5]; i.p.): decreased very rapidly
- time of peak tumor/plasma ratio ([5]; i.p.): about 90 min
- liver/plasma and brain/plasma ratios at 240 min ([5]; i.p., 240 min): about the same
- bioavailability ratio relative to i.v., i.v. ([5]; i.v. 180 mg/kg): 100%
- detectable in plasma until ([5]; limit of detection=25 ng/ml, postinjection): ≥ 6 h
- brain levels and brain/plasma ratio ([5]; mice): generally low
- accumulation in the brain ([5]; mouse, in vivo): does not accumulate to any appreciable degree in the brain
- bioavailability ([5]; mouse, in vivo, ip, i.p. 180 mg/kg, read-out: bioavailability ratio relative to i.v., i.p.): 100%
- bioavailability ([5]; mouse, in vivo, po, p.o. 90 mg/kg, read-out: bioavailability ratio relative to i.v., p.o.): 95.5%
- Cmax ([5]; mouse, plasma, read-out: Cmax, plasma): 145 µg/mL
- half-life ([5]; mouse, plasma, read-out: half life, t1/2, plasma): 50.8 ± 1.6 min
- Tmax ([5]; mouse, plasma, read-out: tmax, plasma (converted)): 30 min
- concentration at 6 h ([5]; mouse, tissue, limit of detection, 6 hours, read-out: tissue levels of drug at 6 hours): < 100 ng/g
- Cmax ([5]; mouse, tumor, read-out: Cmax, tumor): 52000 ng/g
- half-life ([5]; mouse, tumor, read-out: half life, t1/2, tumor): 51.5 ± 4.4 min
- Tmax ([5]; mouse, tumor, read-out: tmax, tumor (converted)): 45 min
- logP [6]: -0.2
- Retention (mean ± S.D.) ([7]; EMT-6, 180 mg/kg i.p., n = 12): 1.04 ± 0.66
- retention in EMT-6 compared with RIF-1 tumors ([7]; MRS): greater in EMT-6 tumors than in RIF-1 tumors
- reduced under hypoxia [8]: reduced
- Retention, air breathing ([9]; Air (20% O2)): 0.62 +/- 0.17
- Retention, carbogen breathing ([9]; Carbogen (95% O2)): 0.11 +/- 0.05
- reduction in retention, carbogen vs air ([9]; carbogen vs air): significant (P<0.01) reduction
- dose excreted ([10]; mouse, read-out: detected as unchanged parent compound in urine): ≤ 66%
- Amount of Drug Excreted [10, 12]: 2.62 mg and 2.39 mg and 1.83 mg
- Fraction of Dose Excreted [10, 12]: 73.80% and 71.56% and 52.59%
- SR 4554 Retention (mean ± SD) [11]: 0.79 +/- 0.36

Source: patent US5721265A, “Fluorinated 2-nitroimidazole analogs for detecting hypoxic tumor cells” (priority 1995, dated 1998)
